Where two headings read alike, the source gives them in different places.
Key:
Assay in all cases: Off-target screening (CEREP)
Type in all cases: binding
Details in all cases: read-out: percent inhibition
[1] = target: Glycine receptor, strychnine insensitive (Rattus norvegicus, UniProt P35439)
Description: (§1) Supplementary Table 1 │ Off-target activity screening f or MCP compou nds […]
(§2) The assays given in the table above were conducted at Eurofins CEREP S A (Celle-Lévescault, France) and were run as single point measurements in duplicates in the presence of 10 µ M of the test compound and reported as percent inhibition of the radioligand signal or control enzymatic activity. n.d., not

Prostaglandin F receptor = target: T1, Prostaglandin F receptor (Homo sapiens, UniProt P43088)
T1 construct: purchased Eurofins CEREP SA
Description: as §1, §2

Adenosine A1 respetor = target: T2, Adenosine A1 respetor (Homo sapiens, UniProt P30542)
T2 construct: purchased Eurofins CEREP SA
T2 sequence (P30542 1-326): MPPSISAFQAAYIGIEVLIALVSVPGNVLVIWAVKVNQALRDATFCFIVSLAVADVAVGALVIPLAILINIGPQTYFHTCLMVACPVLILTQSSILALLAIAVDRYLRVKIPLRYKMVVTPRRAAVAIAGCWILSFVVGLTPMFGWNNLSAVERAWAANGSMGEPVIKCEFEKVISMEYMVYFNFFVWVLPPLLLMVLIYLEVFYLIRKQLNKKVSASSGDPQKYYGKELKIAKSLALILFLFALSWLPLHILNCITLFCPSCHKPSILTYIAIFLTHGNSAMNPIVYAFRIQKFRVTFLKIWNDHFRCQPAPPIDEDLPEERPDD
Description: as §1, §2

PPAR gamma = target: T3, PPAR gamma (Homo sapiens, UniProt P37231)
T3 construct: purchased Eurofins CEREP SA
T3 sequence (P37231 1-505): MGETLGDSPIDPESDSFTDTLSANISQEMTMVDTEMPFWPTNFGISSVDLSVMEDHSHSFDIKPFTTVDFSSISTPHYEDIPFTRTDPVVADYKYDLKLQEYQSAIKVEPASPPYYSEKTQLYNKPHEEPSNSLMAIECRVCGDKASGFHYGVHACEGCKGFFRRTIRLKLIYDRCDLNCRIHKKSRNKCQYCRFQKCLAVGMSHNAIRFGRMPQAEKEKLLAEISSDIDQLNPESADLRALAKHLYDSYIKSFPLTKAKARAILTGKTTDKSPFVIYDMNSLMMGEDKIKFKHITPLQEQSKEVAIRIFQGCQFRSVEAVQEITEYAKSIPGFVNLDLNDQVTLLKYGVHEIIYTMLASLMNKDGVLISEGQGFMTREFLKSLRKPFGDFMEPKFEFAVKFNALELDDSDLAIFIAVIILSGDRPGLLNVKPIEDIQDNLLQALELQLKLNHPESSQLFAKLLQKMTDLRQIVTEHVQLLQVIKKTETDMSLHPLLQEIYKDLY
Description: as §1, §2

Histamine H3 receptor = target: T4, Histamine H3 receptor (Homo sapiens, UniProt Q9Y5N1)
T4 construct: purchased Eurofins CEREP SA
Description: as §1, §2

Alpha1A-adrenoreceptor = target: T5, Alpha1A-adrenoreceptor (Homo sapiens, UniProt P35348)
T5 construct: purchased Eurofins CEREP SA
T5 sequence (P35348 1-466): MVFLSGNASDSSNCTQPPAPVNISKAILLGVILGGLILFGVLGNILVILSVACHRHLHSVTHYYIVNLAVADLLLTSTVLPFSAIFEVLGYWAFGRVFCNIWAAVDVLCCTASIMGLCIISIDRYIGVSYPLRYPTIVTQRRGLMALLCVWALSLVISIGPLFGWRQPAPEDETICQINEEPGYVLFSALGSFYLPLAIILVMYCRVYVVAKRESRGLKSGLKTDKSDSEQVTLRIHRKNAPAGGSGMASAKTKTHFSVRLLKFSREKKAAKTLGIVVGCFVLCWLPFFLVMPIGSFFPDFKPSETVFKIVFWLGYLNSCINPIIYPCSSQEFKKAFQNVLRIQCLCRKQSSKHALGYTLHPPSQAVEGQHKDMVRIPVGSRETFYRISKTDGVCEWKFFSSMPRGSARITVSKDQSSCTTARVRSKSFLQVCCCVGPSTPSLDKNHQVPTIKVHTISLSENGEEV
Description: as §1, §2

Glucocorticoid receptor = target: T6, Glucocorticoid receptor (Homo sapiens, UniProt P04150)
T6 construct: purchased Eurofins CEREP SA
T6 sequence (P04150 1-777): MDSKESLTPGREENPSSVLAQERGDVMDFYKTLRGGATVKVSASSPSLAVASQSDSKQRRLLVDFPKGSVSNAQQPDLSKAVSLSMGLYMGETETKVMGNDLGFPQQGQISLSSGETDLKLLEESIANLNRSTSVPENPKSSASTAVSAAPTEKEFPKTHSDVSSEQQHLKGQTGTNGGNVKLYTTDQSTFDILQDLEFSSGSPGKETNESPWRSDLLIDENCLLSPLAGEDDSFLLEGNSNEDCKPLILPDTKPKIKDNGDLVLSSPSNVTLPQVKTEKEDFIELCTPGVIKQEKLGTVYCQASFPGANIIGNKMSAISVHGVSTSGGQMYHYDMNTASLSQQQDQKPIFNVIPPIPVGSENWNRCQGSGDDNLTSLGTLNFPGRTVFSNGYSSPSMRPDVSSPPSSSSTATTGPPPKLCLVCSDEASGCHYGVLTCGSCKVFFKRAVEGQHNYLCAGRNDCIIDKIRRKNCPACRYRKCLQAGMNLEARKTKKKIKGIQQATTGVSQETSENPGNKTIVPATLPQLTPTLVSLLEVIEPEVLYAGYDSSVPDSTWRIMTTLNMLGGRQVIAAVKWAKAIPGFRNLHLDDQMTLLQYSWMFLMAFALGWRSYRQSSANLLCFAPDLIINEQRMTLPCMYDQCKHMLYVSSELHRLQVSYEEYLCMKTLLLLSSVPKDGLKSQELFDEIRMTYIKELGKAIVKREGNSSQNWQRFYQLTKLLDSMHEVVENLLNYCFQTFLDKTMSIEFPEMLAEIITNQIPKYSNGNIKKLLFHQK
Description: as §1, §2

[2] = target: T7, Norepinephrine transporter (Homo sapiens, UniProt P23975)
T7 construct: purchased Eurofins CEREP SA
Description: as §1, §2

T7 sequence (P23975 whole entry): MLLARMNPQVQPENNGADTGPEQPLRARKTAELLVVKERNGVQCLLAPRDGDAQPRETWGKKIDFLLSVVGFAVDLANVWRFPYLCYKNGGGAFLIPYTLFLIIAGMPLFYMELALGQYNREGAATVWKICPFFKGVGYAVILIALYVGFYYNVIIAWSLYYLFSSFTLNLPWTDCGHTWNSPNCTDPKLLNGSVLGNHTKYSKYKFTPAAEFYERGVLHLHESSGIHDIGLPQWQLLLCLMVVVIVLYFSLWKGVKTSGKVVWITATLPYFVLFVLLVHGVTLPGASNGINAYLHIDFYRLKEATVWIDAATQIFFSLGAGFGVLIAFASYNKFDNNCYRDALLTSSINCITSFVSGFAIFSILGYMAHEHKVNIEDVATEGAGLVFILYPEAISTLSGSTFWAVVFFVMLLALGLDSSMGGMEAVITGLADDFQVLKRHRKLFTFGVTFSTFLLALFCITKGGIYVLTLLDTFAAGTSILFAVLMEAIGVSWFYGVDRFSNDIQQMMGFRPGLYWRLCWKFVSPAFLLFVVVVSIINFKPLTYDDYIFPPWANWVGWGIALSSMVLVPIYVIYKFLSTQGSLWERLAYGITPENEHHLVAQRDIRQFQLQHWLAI
T4 sequence (Q9Y5N1 whole entry): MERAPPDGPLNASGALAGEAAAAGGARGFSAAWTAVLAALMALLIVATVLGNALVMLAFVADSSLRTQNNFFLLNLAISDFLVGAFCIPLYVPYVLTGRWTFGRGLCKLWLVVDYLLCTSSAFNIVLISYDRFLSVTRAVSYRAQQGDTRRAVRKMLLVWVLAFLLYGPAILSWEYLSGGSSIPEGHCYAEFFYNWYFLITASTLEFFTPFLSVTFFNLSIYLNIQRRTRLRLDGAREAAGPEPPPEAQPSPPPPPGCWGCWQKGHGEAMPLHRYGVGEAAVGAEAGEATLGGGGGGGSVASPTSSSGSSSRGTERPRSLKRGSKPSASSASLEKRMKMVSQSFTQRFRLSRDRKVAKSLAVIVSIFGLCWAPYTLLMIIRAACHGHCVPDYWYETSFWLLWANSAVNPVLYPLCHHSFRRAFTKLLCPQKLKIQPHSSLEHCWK
Chain of Glycine receptor, strychnine insensitive (P35439 394-800): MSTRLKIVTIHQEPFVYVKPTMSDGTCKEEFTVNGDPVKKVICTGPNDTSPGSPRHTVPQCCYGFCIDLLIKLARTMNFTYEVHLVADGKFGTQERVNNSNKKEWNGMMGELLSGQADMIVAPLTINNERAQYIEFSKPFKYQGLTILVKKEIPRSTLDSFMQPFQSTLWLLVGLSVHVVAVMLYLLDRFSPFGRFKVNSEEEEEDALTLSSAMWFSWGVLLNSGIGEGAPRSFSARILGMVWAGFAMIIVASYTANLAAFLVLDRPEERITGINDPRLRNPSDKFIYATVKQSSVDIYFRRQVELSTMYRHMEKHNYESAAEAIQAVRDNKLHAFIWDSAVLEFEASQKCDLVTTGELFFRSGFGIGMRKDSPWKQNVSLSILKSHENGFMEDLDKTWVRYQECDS
T1 sequence (P43088 whole entry): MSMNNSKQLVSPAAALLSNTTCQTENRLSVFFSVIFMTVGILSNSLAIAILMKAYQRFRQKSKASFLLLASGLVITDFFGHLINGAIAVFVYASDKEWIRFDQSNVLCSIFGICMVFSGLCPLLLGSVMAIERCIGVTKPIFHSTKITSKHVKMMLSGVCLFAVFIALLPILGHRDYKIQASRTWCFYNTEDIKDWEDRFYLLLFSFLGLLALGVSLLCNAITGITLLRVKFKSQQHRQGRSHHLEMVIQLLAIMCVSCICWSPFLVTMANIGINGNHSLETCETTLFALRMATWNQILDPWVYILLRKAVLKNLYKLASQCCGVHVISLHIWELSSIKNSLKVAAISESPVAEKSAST

Row | SMILES | inhibition at 10 µM [1] [%] | inhibition at 10 µM (Prostaglandin F receptor; 10 µM, duplicates) [%] | inhibition at 10 µM (Adenosine A1 respetor; 10 µM, duplicates) [%] | inhibition at 10 µM (PPAR gamma; 10 µM, duplicates) [%] | inhibition at 10 µM (Histamine H3 receptor; 10 µM, duplicates) [%] | inhibition at 10 µM (Alpha1A-adrenoreceptor; 10 µM, duplicates) [%] | inhibition at 10 µM (Glucocorticoid receptor; 10 µM, duplicates) [%] | inhibition at 10 µM ([2]; 10 µM, duplicates) [%] | inhibition at 10 µM (Prostaglandin F receptor) [%] | inhibition at 10 µM (Adenosine A1 respetor) [%] | inhibition at 10 µM (PPAR gamma) [%] | inhibition at 10 µM (Histamine H3 receptor) [%] | inhibition at 10 µM (Alpha1A-adrenoreceptor) [%] | inhibition at 10 µM (Glucocorticoid receptor) [%] | inhibition at 10 µM [2] [%]
1 | CN1C(=O)[C@H](CCCN)NC(=O)[C@H](CCCN)NCc2ccccc2Sc2ccccc2CNC(=O)[C@@H]1Cc1c[nH]c2ccccc12 [RO7036668] | -27 | 2 | 1 | -1 | 12 | 15 | 3 | 43 | – | – | – | – | – | – | –
2 | CN1C(=O)[C@H](CCCCN)NC(=O)[C@H](CCCN)NCc2cccnc2Sc2c(Cl)ccc(Cl)c2CNC(=O)[C@@H]1Cc1c[nH]c2ccccc12 [RO7075573] | -29 | – | – | – | – | – | – | – | -4 | -10 | -16 | -4 | 22 | 9 | 1
3 | CN1C(=O)[C@H](CCCCN)NC(=O)[C@H](CCCN)NCc2cccnc2Sc2c(Cl)ccc(-c3ccc(C(=O)O)cc3)c2CNC(=O)[C@@H]1Cc1c[nH]c2ccccc12 [RO7202110] | -25 | -3 | 1 | -8 | 5 | 7 | 9 | 14 | – | – | – | – | – | – | –
4 | CN1C(=O)[C@H](CCCCN)NC(=O)[C@H](CCCN)NCc2cccnc2Sc2cccc(-c3ccc(C(=O)O)cc3)c2CNC(=O)[C@@H]1Cc1c[nH]c2ccccc12 [zosurabalpin] | 15 | – | – | – | – | – | – | – | 5 | -7 | -4 | 5 | 7 | -1 | 12
